For 32 molecules, AC50 results are on record in patent US20250171437A1 (Agios Pharmaceuticals,Inc., priority 2022, published 2025).

Where only a bound is given, the exact number is not on record here.

One assay concerns the target T1, human PAH with the R408W mutation (A375 R408W cells) (Homo sapiens, UniProt P00439, R408W).
T1 construct: expressed in transfected cells
T1 sequence (P00439 1-452 R408W): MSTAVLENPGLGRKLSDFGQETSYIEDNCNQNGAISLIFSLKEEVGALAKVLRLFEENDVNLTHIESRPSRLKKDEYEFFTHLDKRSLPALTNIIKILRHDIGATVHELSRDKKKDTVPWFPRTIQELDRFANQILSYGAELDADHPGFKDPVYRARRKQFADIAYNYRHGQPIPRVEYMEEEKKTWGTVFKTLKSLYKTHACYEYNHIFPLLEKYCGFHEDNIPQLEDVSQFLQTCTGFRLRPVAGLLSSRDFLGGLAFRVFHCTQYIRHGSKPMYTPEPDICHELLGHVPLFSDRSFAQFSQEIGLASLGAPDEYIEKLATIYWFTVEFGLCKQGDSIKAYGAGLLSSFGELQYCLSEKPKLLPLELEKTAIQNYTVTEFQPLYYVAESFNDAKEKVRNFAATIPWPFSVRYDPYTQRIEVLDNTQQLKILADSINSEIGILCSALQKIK
In words: Cell Based Phenylalanine Flux Assay. Particulars: A375 R408W cells; 24 hrs with compound, then 20 μM sepiapterin and 800 μM 13C9,15N-Phenylalanine for 4 hours; 13C-Tyrosine by LC-MS; average where tested multiple times. A digest of the protocol: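 A375 cells stably expressing human PAH R408W treated 24 h at 37° C with a 10-point 2-fold dose curve in duplicate, 0.5% DMSO. Then 20 μM sepiapterin and 800 μM 13C9,15N-Phe added for 4 h; 13C-Tyr in media measured by LC-MS to give AC50.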
One may read the AC50 as the concentration giving half of the maximal activity seen. Consider `O=C(c1nnc(-c2ccccn2)o1)N1CCc2[nH]cnc2[C@@H]1c1nc2cc(F)ccc2o1` [Example 40, (R)-(4-(5-fluorobenzo[d]oxazol-2-yl)-6,7-dihydro-1H-imidazo[4,5-c]pyridin-5(4H)-yl)(5-(pyridin-2-yl)-1,3,4-oxadiazol-2-yl)methanone], for which the AC50 was 1 to 5 µM.
For the molecule `Cn1ccc(-c2nc(C(F)F)c(C(=O)N3CCc4[nH]cnc4[C@@H]3c3nc4ccccc4o3)o2)n1` [Example 762, (R)-(4-(benzo[d]oxazol-2-yl)-6,7-dihydro-1H-imidazo[4,5-c]pyridin-5(4H)-yl)(4-(difluoromethyl)-2-(1-methyl-1H-pyrazol-3-yl)oxazol-5-yl)methanone], the AC50 lay in the range of 1 to 5 µM.
Regarding `COc1ccc2oc([C@H]3c4nc[nH]c4CCN3C(=O)c3oc(C(C)(C)O)nc3C(F)F)nc2c1` [Example 340, (R)-(4-(difluoromethyl)-2-(2-hydroxypropan-2-yl)oxazol-5-yl)(4-(5-methoxybenzo[d]oxazol-2-yl)-6,7-dihydro-1H-imidazo[4,5-c]pyridin-5(4H)-yl)methanone], the AC50 was 1 to 5 µM.
`O=C(c1cnco1)N1CCc2[nH]cnc2[C@H]1c1nc2cccc(F)c2o1` [Example 281, (S)-(4-(7-fluorobenzo[d]oxazol-2-yl)-6,7-dihydro-1H-imidazo[4,5-c]pyridin-5(4H)-yl)(oxazol-5-yl)methanone]: the AC50 lay in the range of 0.5 to 1 µM.
`COc1cccc2nc([C@H]3c4nc[nH]c4CCN3C(=O)c3nc(C)nn3C)oc12` [Example 910, (R)-(1,3-dimethyl-1H-1,2,4-triazol-5-yl)(4-(7-methoxybenzo[d]oxazol-2-yl)-6,7-dihydro-1H-imidazo[4,5-c]pyridin-5(4H)-yl)methanone]: the AC50 is not below 5 µM.
On to `Cc1ccc2oc([C@@H]3c4nc[nH]c4CCN3C(=O)c3nnc(-c4cnn(C)c4)o3)nc2c1` [Example 111, (S)-(5-(1-methyl-1H-pyrazol-4-yl)-1,3,4-oxadiazol-2-yl)(4-(5-methylbenzo[d]oxazol-2-yl)-6,7-dihydro-1H-imidazo[4,5-c]pyridin-5(4H)-yl)methanone], for which the concentration at half-maximal activity (AC50) was in the range of 0.5 to 1 µM.
The same measure, in the same setting: in the case of `O=C(c1nnc(-c2ccc(F)c(F)c2)o1)N1CCc2[nH]cnc2[C@@H]1c1nc2cc(F)ccc2o1` [Example 76, (R)-(5-(3,4-difluorophenyl)-1,3,4-oxadiazol-2-yl)(4-(5-fluorobenzo[d]oxazol-2-yl)-6,7-dihydro-1H-imidazo[4,5-c]pyridin-5(4H)-yl)methanone] it was 1 to 5 µM; in that of “(R)-(3-(difluoromethyl)-1-methyl-1H-1,2,4-triazol-5-yl)(4-(4-methylbenzo[d]oxazol-2-yl)-6,7-dihydro-1H-imidazo[4,5-c]pyridin-5(4H)-yl)methanone [Example 814]”, not above 0.5 µM; in that of `O=C(c1nnc(-c2ccc(OC(F)(F)F)cn2)o1)N1CCc2[nH]cnc2[C@H]1c1nc2cc(F)ccc2o1` [Example 671, (S)-(4-(5-fluorobenzo[d]oxazol-2-yl)-6,7-dihydro-1H-imidazo[4,5-c]pyridin-5(4H)-yl)(5-(5-(trifluoromethoxy)pyridin-2-yl)-1,3,4-oxadiazol-2-yl)methanone], 1 to 5 µM.
As for `Cc1ccc2nc([C@H]3c4nc[nH]c4CCN3C(=O)c3nnc(-c4cnn(C(F)F)c4)o3)oc2c1` [Example 682, (R)-(5-(1-(difluoromethyl)-1H-pyrazol-4-yl)-1,3,4-oxadiazol-2-yl)(4-(6-methylbenzo[d]oxazol-2-yl)-6,7-dihydro-1H-imidazo[4,5-c]pyridin-5(4H)-yl)methanone], the AC50 is not below 5 µM.
The same measure, in the same setting: in the case of `O=C(c1oc(-c2ccccn2)nc1C(F)F)N1CCc2[nH]cnc2[C@@H]1c1nc2cc(F)ccc2o1` [Example 86, (R)-(4-(difluoromethyl)-2-(pyridin-2-yl)oxazol-5-yl)(4-(5-fluorobenzo[d]oxazol-2-yl)-6,7-dihydro-1H-imidazo[4,5-c]pyridin-5(4H)-yl)methanone] it was 1 to 5 µM.
With `Cc1ccc2c(C(=O)N3CCc4[nH]cnc4[C@H]3c3nc4c(F)cccc4o3)cnn2c1` [Example 537, (S)-(4-(4-fluorobenzo[d]oxazol-2-yl)-6,7-dihydro-1H-imidazo[4,5-c]pyridin-5(4H)-yl)(6-methylpyrazolo[1,5-a]pyridin-3-yl)methanone], the concentration at half-maximal activity (AC50) was not above 0.5 µM.
Same read-out and setting: the value for `O=C(c1nnc(-c2ccc(F)c(F)c2)o1)N1CCc2[nH]cnc2[C@H]1c1nc2cc(F)ccc2o1` [Example 75, (S)-(5-(3,4-difluorophenyl)-1,3,4-oxadiazol-2-yl)(4-(5-fluorobenzo[d]oxazol-2-yl)-6,7-dihydro-1H-imidazo[4,5-c]pyridin-5(4H)-yl)methanone] was 0.5 to 1 µM.
Same read-out and setting: in the case of `Cc1cc(C(=O)N2CCc3[nH]cnc3[C@H]2c2nc3cccc(C)c3o2)n(C)n1` [Example 781, (S)-(1,3-dimethyl-1H-pyrazol-5-yl)(4-(7-methylbenzo[d]oxazol-2-yl)-6,7-dihydro-1H-imidazo[4,5-c]pyridin-5(4H)-yl)methanone] it was not above 0.5 µM; in that of `Cc1ccc2nc([C@H]3c4nc[nH]c4CCN3C(=O)c3nnc(-c4ccccn4)o3)oc2c1` [Example 102, (R)-(4-(6-methylbenzo[d]oxazol-2-yl)-6,7-dihydro-1H-imidazo[4,5-c]pyridin-5(4H)-yl)(5-(pyridin-2-yl)-1,3,4-oxadiazol-2-yl)methanone], 1 to 5 µM.
Still for that read-out and setting: in the case of `COc1cccc2nc([C@H]3c4nc[nH]c4CCN3C(=O)c3oc(C(C)(C)O)nc3C(F)F)oc12` [Example 456, (R)-(4-(difluoromethyl)-2-(2-hydroxypropan-2-yl)oxazol-5-yl)(4-(7-methoxybenzo[d]oxazol-2-yl)-6,7-dihydro-1H-imidazo[4,5-c]pyridin-5(4H)-yl)methanone] it was 1 to 5 µM; in that of `CC(C)n1ncnc1C(=O)N1CCc2[nH]cnc2[C@H]1c1nc2ccccc2o1` [Example 705, (S)-(4-(benzo[d]oxazol-2-yl)-6,7-dihydro-1H-imidazo[4,5-c]pyridin-5(4H)-yl)(1-isopropyl-1H-1,2,4-triazol-5-yl)methanone], not above 0.5 µM; in that of `COc1cccc2nc([C@H]3c4nc[nH]c4CCN3C(=O)c3nc(C(F)(F)F)nn3C)oc12` [Example 698, (R)-(4-(7-methoxybenzo[d]oxazol-2-yl)-6,7-dihydro-1H-imidazo[4,5-c]pyridin-5(4H)-yl)(1-methyl-3-(trifluoromethyl)-1H-1,2,4-triazol-5-yl)methanone], 1 to 5 µM.
On to `O=C(c1ocnc1C(F)F)N1CCc2[nH]cnc2[C@H]1c1nc2c(Cl)cccc2o1` [Example 437, [(4S)-4-(4-chloro-1,3-benzoxazol-2-yl)-1,4,6,7-tetrahydroimidazo[4,5-c]pyridin-5-yl]-[4-(difluoromethyl)oxazol-5-yl]methanone], for which the AC50 is not above 0.5 µM.
Still for that read-out and setting: in the case of `O=C(c1ocnc1C(F)(F)F)N1CCc2[nH]cnc2[C@H]1c1nc2ccccc2o1` [Example 797, (S)-(4-(benzo[d]oxazol-2-yl)-6,7-dihydro-1H-imidazo[4,5-c]pyridin-5(4H)-yl)(4-(trifluoromethyl)oxazol-5-yl)methanone] it was not above 0.5 µM; in that of `Cn1cc(-c2nnc(C(=O)N3Cc4[nH]cnc4[C@H]3c3nc4ccccc4o3)o2)cn1` [Example 935, (S)-(4-(benzo[d]oxazol-2-yl)-4,6-dihydropyrrolo[3,4-d]imidazol-5(1H)-yl)(5-(1-methyl-1H-pyrazol-4-yl)-1,3,4-oxadiazol-2-yl)methanone], not below 5 µM.

Still in this assay, the particulars now being: A375 cells expressing R408W PAH; 24 hrs with compound, then 20 μM sepiapterin and 800 μM 13C9,15N-Phenylalanine for 4 hours; 13C-Tyrosine by LC-MS; average where tested multiple times.
Consider `Cc1ccc2nc(C3c4nc[nH]c4CCN3C(=O)c3cnn4cc(CN(C)C)ccc34)oc2c1` (centres unmarked), for which the AC50 lay in the range of 1 to 5 µM.
`COc1cccc2nc(C3c4nc[nH]c4CCN3C(=O)c3ccnn3-c3ccccn3)oc12` (centres unmarked): the AC50 lay in the range of 1 to 5 µM.
As for `Cc1ccc2oc(C3c4nc[nH]c4CCN3C(=O)c3nnc(C)o3)nc2c1` (centres unmarked), the AC50 is not below 5 µM.
For `O=C(c1cnn2cc(N3CCC(O)CC3)ccc12)N1CCc2[nH]cnc2C1c1nc2cc(F)ccc2o1` (centres unmarked), the AC50 fell in the range of 1 to 5 µM.
Same read-out and setting: in the case of `CC(C)(O)c1nc(C(F)F)c(C(=O)N2CC(C)(C)c3[nH]cnc3C2c2nc3cc(F)ccc3o2)o1` (centres unmarked) it was not below 5 µM; in that of `O=C(c1nnc(-c2cnn(CC(F)(F)F)c2)o1)N1CCc2[nH]cnc2C1c1nc2cc(F)ccc2o1` (centres unmarked), 1 to 5 µM; in that of `Cc1ccc2nc(C3c4nc[nH]c4CCN3C(=O)c3nnc(C(C)(C)O)o3)oc2c1` (centres unmarked), 1 to 5 µM.
On the same count and under the same terms, the value for `COCc1ccc2c(C(=O)N3CCc4[nH]cnc4C3c3nc4ccc(C)cc4o3)cnn2c1` (centres unmarked) was not below 5 µM; that for `O=C(CCc1cncs1)N1CCc2[nH]cnc2C1c1nc2c(F)cccc2o1` (centres unmarked) was not below 5 µM.
The same measure, in the same setting: the value for `O=C(c1nnc(-c2ccn(C(F)F)n2)o1)N1CCc2[nH]cnc2C1c1nc2cc(C(F)(F)F)ccc2o1` (centres unmarked) was 1 to 5 µM; that for `Cc1nc(-c2cnn(C)c2)oc1C(=O)N1CCc2[nH]cnc2C1c1nc2cc(F)ccc2o1` (centres unmarked) was 1 to 5 µM.
